# Structures can show the parent of a compound that is named as a salt.
# Target: T1, human BRD4 bromodomain II (Homo sapiens, UniProt O60885)
# T1 construct: human BRD4 bromodomain II [based on Genbank NM_058243, residues 349-460]; host or cells: E. coli
# Assay: Bromodomain binding assay (AlphaScreen), BRD4 BDII
# Settings: AlphaScreen assay, Table C2; read-out: BRD4 BDII IC50
# Outline: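 Inhibition of acetyl-H4 peptide binding to human BRD4 bromodomains is measured by bead-based proximity (AlphaScreen) in pH 7.5 HEPES buffer containing 0.05% CHAPS and 0.1% BSA. Ten compound concentrations in 3-fold steps give competitive binding IC50s.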
row,Structure (SMILES),IC50 [nM]
1,"CC(=O)Nc1ccc(-c2cccc(-c3cccc(OC4CCCC4)c3)c2O)cc1F [Example 115, N-(3″-(Cyclopentyloxy)-3-fluoro-2′-hydroxy-[1,1′:3′,1″-terphenyl]-4-yl)acetamide]",> 100
2,"CC(=O)Nc1ccc(-c2cccc(-c3cnn(C)c3)c2O)cc1 [Example 13, N-(2′-Hydroxy-3′-(1-methyl-1H-pyrazol-4-yl)-[1,1′-biphenyl]-4-yl)acetamide]",> 100
3,"COc1cc(-c2cccc(-c3cc(F)c(NC(C)=O)c(F)c3)c2O)ccc1NC(C)=O [Example 128, N,N′-(3,5-Difluoro-2′-hydroxy-3″-methoxy-[1,1′:3′,1″-terphenyl]-4,4″-diyl)diacetamide]",10 to 100
4,"CCc1ccc(-c2cccc(-c3ccc(NC(C)=O)c(F)c3)c2O)cc1 [Example 82, N-(4″-Ethyl-3-fluoro-2′-hydroxy-[1,1′:3′,1″-terphenyl]-4-yl)acetamide]",> 100
5,"CC(=O)Nc1ccc(-c2cccc(-c3ccnc(N4CC(O)C4)c3)c2O)cc1F [Example 225, N-(3-fluoro-2′-hydroxy-3′-(2-(3-hydroxyazetidin-1-yl)pyridin-4-yl)-[1,1′-biphenyl]-4-yl)acetamide]",> 100
6,"CCNC(=O)c1ccc(-c2cccc(-c3ccc(NC(C)=O)c(F)c3)c2O)cc1 [Example 92, 4″-Acetamido-N-ethyl-3″-fluoro-2′-hydroxy-[1,1′:3′,1″-terphenyl]-4-carboxamide]",> 100
7,"CC(=O)Nc1ccc(-c2cccc(-c3ccc(C(F)(F)F)cc3)c2O)cc1F [Example 83, N-(3-Fluoro-2′-hydroxy-4″-(trifluoromethyl)-[1,1′:3′,1″-terphenyl]-4-yl)acetamide]",> 100
8,"CC(=O)Nc1ccc(-c2cccc(-c3ccc(OC(C)C)cc3)c2O)cc1F [Example 106, N-(3-Fluoro-2′-hydroxy-4″-isopropoxy-[1,1′:3′,1″-terphenyl]-4-yl)acetamide]",> 100
9,"CC(=O)Nc1ccc(-c2cccc(-c3cnn(C4CCNCC4)c3)c2O)cc1 [Example 15, N-(2′-Hydroxy-3′-(1-(piperidin-4-yl)-1H-pyrazol-4-yl)-[1,1′-biphenyl]-4-yl)acetamide]",> 100
10,"O=C1CCCN1c1c(F)cc(-c2cccc(-c3ccncc3)c2O)cc1F [Example 207, 1-(3,5-difluoro-2′-hydroxy-3′-(pyridin-4-yl)-[1,1′-biphenyl]-4-yl)pyrrolidin-2-one]",> 100
11,"CC(=O)Nc1ccc(-c2cccc(-c3cnc4c(ccn4C)c3)c2O)cc1F [Example 125, N-(3-Fluoro-2′-hydroxy-3′-(1-methyl-1H-pyrrolo[2,3-b]pyridin-5-yl)-[1,1′-biphenyl]-4-yl)acetamide]",> 100
12,"CC(=O)Nc1ccc(-c2cccc(-c3ccccc3)c2O)cc1 [Example 12, N-(2′-Hydroxy-[1,1′:3′,1″-terphenyl]-4-yl)acetamide]",> 100
13,"COc1cc(-c2cccc(-c3cc(F)c(N4CCCC4=O)c(F)c3)c2O)ccc1NC(C)=O [Example 133, N-(3″,5″-Difluoro-2′-hydroxy-3-methoxy-4″-(2-oxopyrrolidin-1-yl)-[1,1′:3′,1″-terphenyl]-4-yl)acetamide]",10 to 100
14,"O=C1CCOc2cc(-c3cccc(-c4cc(N5CCNCC5)no4)c3O)ccc2N1 [Example 62, 8-(2-Hydroxy-3-(3-(piperazin-1-yl)isoxazol-5-yl)phenyl)-2,3-dihydrobenzo[b][1,4]oxazepin-4(5H)-one]",> 100
15,"CC(=O)Nc1ccc(-c2cc(F)cc(-c3ccc(F)c(C4=CCNCC4)c3)c2O)cc1F [Example 247, N-(3,4″,5′-trifluoro-2′-hydroxy-3″-(1,2,3,6-tetrahydropyridin-4-yl)-[1,1′:3′,1″-terphenyl]-4-yl)acetamide]",1 to 10
16,"CC(=O)Nc1ccc(-c2cccc(-c3ccc(N)nc3)c2O)cc1F [Example 110, N-(3′-(6-Aminopyridin-3-yl)-3-fluoro-2′-hydroxy-[1,1′-biphenyl]-4-yl)acetamide]",10 to 100
17,"CC(=O)Nc1ccc(-c2cccc(-c3cccc(-c4cn[nH]c4)c3)c2O)cc1F [Example 246, N-(3-fluoro-2′-hydroxy-3″-(1H-pyrazol-4-yl)-[1,1′:3′,1″-terphenyl]-4-yl)acetamide]",> 100
18,"CCc1cccc(-c2cccc(-c3ccc(NC(C)=O)c(F)c3)c2O)c1 [Example 79, N-(3″-Ethyl-3-fluoro-2′-hydroxy-[1,1′:3′,1″-terphenyl]-4-yl)acetamide]",> 100
19,"CC(=O)Nc1ccc(-c2cccc(-c3cccc(-c4nc[nH]n4)c3)c2O)cc1F [Example 208, N-(3-fluoro-2′-hydroxy-3″-(1H-1,2,4-triazol-3-yl)-[1,1′:3′,1″-terphenyl]-4-yl)acetamide]",> 100
20,"CC(=O)Nc1ccc(-c2cccc(-c3cnn(C4CCN(C)CC4)c3)c2O)cc1 [Example 17, N-(2′-Hydroxy-3′-(1-(1-methylpiperidin-4-yl)-1H-pyrazol-4-yl)-[1,1′-biphenyl]-4-yl)acetamide]",> 100
21,"CC(=O)Nc1ccc(-c2cccc(-c3ccnnc3)c2O)cc1F [Example 102, N-(3-Fluoro-2′-hydroxy-3′-(pyridazin-4-yl)-[1,1′-biphenyl]-4-yl)acetamide]",10 to 100

# Next, values leading:
row,IC50 [nM],Structure (SMILES)
1,10 to 100,"CC(=O)Nc1ccc(-c2cccc(-c3cccc(N4CCC(N)CC4)c3)c2O)cc1F [Example 159, N-(3″-(4-aminopiperidin-1-yl)-3-fluoro-2′-hydroxy-[1,1′:3′,1″-terphenyl]-4-yl)acetamide 2,2,2-trifluoroacetate]"
2,1 to 10,"CC(=O)Nc1ccc(-c2cccc(-c3cc(N4CCNCC4)cc(C(F)(F)F)c3)c2O)cc1F [Example 215, N-(3-fluoro-2′-hydroxy-3″-(piperazin-1-yl)-5″-(trifluoromethyl)-[1,1′:3′,1″-terphenyl]-4-yl)acetamide]"
3,1 to 10,"CC(=O)Nc1ccc(-c2cccc(-c3ccnc(N4CCC(CO)CC4)c3)c2O)cc1F [Example 198, N-(3-fluoro-2′-hydroxy-3′-(2-(4-(hydroxymethyl)piperidin-1-yl)pyridin-4-yl)-[1,1′-biphenyl]-4-yl)acetamide]"
4,10 to 100,"CC(=O)Nc1ccc(-c2cccc(-c3ccc(NC(C)=O)c(C#N)c3)c2O)cc1F [Example 49, N,N′-(3-Cyano-3″-fluoro-2′-hydroxy-[1,1′:3′,1″-terphenyl]-4,4″-diyl)diacetamide]"
5,1 to 10,"CC(=O)Nc1ccc(-c2cccc(-c3cccc(N4CCNC[C@H]4C)c3)c2O)cc1F [Example 169, (R)-N-(3-fluoro-2′-hydroxy-3″-(2-methylpiperazin-1-yl)-[1,1′:3′,1″-terphenyl]-4-yl)acetamide]"
6,10 to 100,"CC(=O)Nc1ccc(-c2cccc(-c3ccc4[nH]cnc4c3)c2O)cc1F [Example 131, N-(3′-(1H-Benzo[d]imidazol-5-yl)-3-fluoro-2′-hydroxy-[1,1′-biphenyl]-4-yl)acetamide]"
7,> 100,"CC(=O)Nc1ccc(-c2cccc(-c3cc(N4CCNCC4)no3)c2O)cc1C(C)C [Example 27, N-(2′-Hydroxy-3-isopropyl-3′-(3-(piperazin-1-yl)isoxazol-5-yl)-[1,1′-biphenyl]-4-yl)acetamide 2,2,2-trifluoroacetate]"
8,> 100,"CC(=O)Nc1ccc(-c2cccc(-c3ccc(NC(C)=O)c(N4CCNCC4)c3)c2O)cc1N1CCNCC1 [Example 185, N,N′-(2′-hydroxy-3,3″-di(piperazin-1-yl)-[1,1′:3′,1″-terphenyl]-4,4″-diyl)diacetamide]"
9,10 to 100,"O=C1NCCN1c1ccc(-c2cccc(-c3cc(N4CCNCC4)no3)c2O)cc1 [Example 41, 1-(2′-Hydroxy-3′-(3-(piperazin-1-yl)isoxazol-5-yl)-[1,1′-biphenyl]-4-yl)imidazolidin-2-one 2,2,2-trifluoroacetate]"
10,10 to 100,"CC(=O)Nc1ccc(-c2cccc(-c3cc(F)cc(N4CCNCC4)c3)c2O)cc1F [Example 178, N-(3,3″-difluoro-2′-hydroxy-5″-(piperazin-1-yl)-[1,1′:3′,1″-terphenyl]-4-yl)acetamide]"
11,10 to 100,"COc1cc(-c2cccc(-c3ccc(NC(C)=O)c(F)c3)c2O)ccc1NC(C)=O [Example 42, N,N′-(3-Fluoro-2′-hydroxy-3″-methoxy-[1,1′:3′,1″-terphenyl]-4,4″-diyl)diacetamide]"
12,> 100,"CC(=O)Nc1ccc(-c2cccc(-c3cc(N4CCNCC4)no3)c2O)cc1C [Example 21, N-(2′-Hydroxy-3-methyl-3′-(3-(piperazin-1-yl)isoxazol-5-yl)-[1,1′-biphenyl]-4-yl)acetamide hydrochloride]"
13,> 100,"CC(=O)Nc1ccc(-c2cccc(-c3csc(N4CCNCC4)n3)c2O)cc1F [Example 212, N-(3-Fluoro-2′-hydroxy-3′-(2-(piperazin-1-yl)thiazol-4-yl)-[1,1′-biphenyl]-4-yl)acetamide]"
14,10 to 100,"CC(=O)Nc1ccc(-c2cccc(-c3cc(N4CCNCC4)no3)c2O)cc1C#N [Example 64, N-(3-Cyano-2′-hydroxy-3′-(3-(piperazin-1-yl)isoxazol-5-yl)-[1,1′-biphenyl]-4-yl)acetamide 2,2,2-trifluoroacetate]"
15,> 100,"CC(=O)Nc1ccc(-c2cccc(-c3nnc(N4CCNCC4)[nH]3)c2O)cc1F [Example 148, N-(3-fluoro-2′-hydroxy-3′-(5-(piperazin-1-yl)-4H-1,2,4-triazol-3-yl)-[1,1′-biphenyl]-4-yl)acetamide]"
16,1 to 10,"CC(=O)Nc1ccc(-c2cccc(-c3cccc(C4CCNCC4)c3)c2O)cc1F [Example 210, N-(3-fluoro-2′-hydroxy-3″-(piperidin-4-yl)-[1,1′:3′,1″-terphenyl]-4-yl)acetamide]"

# Same assay, conditions: BRD4 BDII IC50, AlphaScreen assay, Table C2
row,Structure (SMILES),IC50 [nM]
1,"O=C(CF)Nc1ccc(-c2cccc(-c3cc(N4CCNCC4)no3)c2O)cc1 [Example 66, 2-Fluoro-N-(2′-hydroxy-3′-(3-(piperazin-1-yl)isoxazol-5-yl)-[1,1′-biphenyl]-4-yl)acetamide 2,2,2-trifluoroacetate]",> 100
